One block for each molecule: values may come before it. Square brackets hold non-standard residues; d marks the D form. Ends that are not written are not given here. Peptide text beside a SMILES is read from it. Nle = CCCC[C@H](N)C(=O)O
Assays:
[1] = Stability of GLP-2 analogues on incubation at 37° C. (appearance, O.D. reading, RP-HPLC); format: physicochemical; conditions: following 48 h incubation at 37° C.; for Stability via RP-HPLC main peak: change of main peak
Protocol: The GLP-2 analogues were tested for stability via appearance, O.D. reading (A.280, and A.325) and RP-HPLC (purity, and peak area) following t=0, 1 day, and 48 h incubation at 37° C.

GLP-2 receptor [2] = molecular target: T1, GLP-2 receptor (Homo sapiens, UniProt O95838); experiment: GLP-2 receptor Cell Based Assay (CBA)
T1 sequence (O95838 1-553): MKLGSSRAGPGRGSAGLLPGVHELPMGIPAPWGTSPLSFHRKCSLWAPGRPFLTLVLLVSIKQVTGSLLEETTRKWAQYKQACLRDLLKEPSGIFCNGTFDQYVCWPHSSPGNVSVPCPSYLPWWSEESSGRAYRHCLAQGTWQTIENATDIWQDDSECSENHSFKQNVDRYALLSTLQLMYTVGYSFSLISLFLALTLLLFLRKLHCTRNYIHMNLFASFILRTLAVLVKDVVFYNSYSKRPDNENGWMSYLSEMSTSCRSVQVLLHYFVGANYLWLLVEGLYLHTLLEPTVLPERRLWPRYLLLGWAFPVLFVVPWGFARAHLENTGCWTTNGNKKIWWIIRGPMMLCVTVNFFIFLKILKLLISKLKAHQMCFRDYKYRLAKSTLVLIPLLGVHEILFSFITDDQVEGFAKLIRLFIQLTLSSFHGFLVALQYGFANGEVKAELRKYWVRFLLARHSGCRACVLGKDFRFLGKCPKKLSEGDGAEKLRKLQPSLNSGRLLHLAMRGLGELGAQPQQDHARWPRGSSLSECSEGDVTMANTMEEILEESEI
Protocol: Evaluation of in vitro binding affinity of the different peptides was assessed by using Cell Based Assay (CBA) in the presence of escalating doses of the different peptides.

GLP-2 receptor [3] = molecular target: T2, GLP-2 receptor (UniProt O95838 1-553, limits assumed); experiment: cell-based or functional assay
T2 sequence (looked up): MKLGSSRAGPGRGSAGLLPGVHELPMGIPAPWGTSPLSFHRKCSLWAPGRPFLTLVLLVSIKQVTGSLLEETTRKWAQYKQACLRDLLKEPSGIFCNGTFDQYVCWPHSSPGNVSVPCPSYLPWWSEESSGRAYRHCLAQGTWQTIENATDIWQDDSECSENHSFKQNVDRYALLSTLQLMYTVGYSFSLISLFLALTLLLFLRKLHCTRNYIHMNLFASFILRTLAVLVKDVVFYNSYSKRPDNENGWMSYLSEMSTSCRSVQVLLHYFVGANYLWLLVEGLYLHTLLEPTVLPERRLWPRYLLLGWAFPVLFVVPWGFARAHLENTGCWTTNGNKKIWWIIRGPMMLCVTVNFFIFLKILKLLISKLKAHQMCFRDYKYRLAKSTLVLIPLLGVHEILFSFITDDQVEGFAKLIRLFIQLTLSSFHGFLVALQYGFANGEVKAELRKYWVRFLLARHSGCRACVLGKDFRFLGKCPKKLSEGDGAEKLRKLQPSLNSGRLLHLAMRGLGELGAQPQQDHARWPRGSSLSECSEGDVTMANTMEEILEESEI

[4] = Table 8, average of 3 independent CBA

Solubility via appearance [1]: V2: opaque | Stability via RP-HPLC main peak [1]: V2: −30% | EC50 Ratio to Teduglutide (GLP-2 receptor [2]; Table 7): 6.4
Molecule: CCCC[C@H](NC(=O)[C@H](CCC(=O)O)NC(=O)[C@H](CC(=O)O)NC(=O)[C@H](CO)NC(=O)[C@H](Cc1ccccc1)NC(=O)[C@H](CO)NC(=O)CNC(=O)[C@H](CCC(=O)O)NC(=O)CNC(=O)[C@@H](N)Cc1c[nH]cn1)C(=O)N[C@H](Cc1ccccc1)C(=O)N[C@H](C(=O)N[C@H](C(=O)N[C@@H](CC(C)C)C(=O)N[C@@H](CC(=O)O)C(=O)N[C@@H](CC(N)=O)C(=O)N[C@@H](CC(C)C)C(=O)N[C@@H](C)C(=O)N[C@@H](C)C(=O)N[C@@H](CCCNC(=N)N)C(=O)N[C@@H](CC(=O)O)C(=O)N[C@@H](Cc1ccccc1)C(=O)N[C@H](C(=O)N[C@@H](CC(N)=O)C(=O)N[C@@H](Cc1c[nH]c2ccccc12)C(=O)N[C@@H](CC(C)C)C(=O)N[C@H](C(=O)N[C@@H](CCC(N)=O)C(=O)N[C@H](C(=O)N[C@@H](CCCCN)C(=O)N[C@H](C(=O)N[C@H](C(=O)N[C@@H](CC(=O)O)C(N)=O)[C@@H](C)O)[C@@H](C)CC)[C@@H](C)O)[C@@H](C)CC)[C@@H](C)CC)[C@@H](C)CC)[C@@H](C)O [Variant 2] (H-HGEGSFSDE[Nle][dF]TILDNLAARDFINWLIQTKITD-NH2)

EC50 (GLP-2 receptor [2]; EC50 (nM) Average, average of 3 independent CBA, different GLP-2R Assay Kit lot (Table 8)): 5.4 nM
Molecule: HGEGTFSSELATILDALAARDFIAWLIATKITDKKKKKK-NH2 [Variant 10, NH2-HG^2E^3GT^5FSS^8EL^10A^11TILDA^16LAAR20DFIA^24WLIA^28TKITDK^34K^35K^36K^37K^38K^39- NH2, reference compound]

Solubility via appearance [1]: V9: clear | Stability via RP-HPLC main peak [1]: V9: −1.5%
Molecule: CCCC[C@H](NC(=O)[C@H](CCC(=O)O)NC(=O)[C@H](CC(=O)O)NC(=O)[C@H](CO)NC(=O)[C@H](Cc1ccccc1)NC(=O)[C@H](CO)NC(=O)CNC(=O)[C@H](CCC(=O)O)NC(=O)CNC(=O)[C@@H](N)Cc1c[nH]cn1)C(=O)N[C@H](Cc1ccccc1)C(=O)N[C@H](C(=O)N[C@H](C(=O)N[C@@H](CC(C)C)C(=O)N[C@@H](CC(=O)O)C(=O)N[C@@H](CC(C)C)C(=O)N[C@@H](CC(C)C)C(=O)N[C@@H](C)C(=O)N[C@@H](C)C(=O)N[C@@H](CCCNC(=N)N)C(=O)N[C@@H](CC(=O)O)C(=O)N[C@@H](Cc1ccccc1)C(=O)N[C@H](C(=O)N[C@@H](CC(N)=O)C(=O)N[C@@H](Cc1c[nH]c2ccccc12)C(=O)N[C@@H](CC(C)C)C(=O)N[C@H](C(=O)N[C@@H](CCC(N)=O)C(=O)N[C@H](C(=O)N[C@@H](CCCCN)C(=O)N[C@H](C(=O)N[C@H](C(=O)N[C@@H](CC(=O)O)C(N)=O)[C@@H](C)O)[C@@H](C)CC)[C@@H](C)O)[C@@H](C)CC)[C@@H](C)CC)[C@@H](C)CC)[C@@H](C)O [Variant 9] (H-HGEGSFSDE[Nle][dF]TILDLLAARDFINWLIQTKITD-NH2)

EC50 Ratio to Teduglutide (GLP-2 receptor [2]; [4]): 9.4 | EC50 Ratio to Variant 4 (GLP-2 receptor [2]; [4]): 5.3
Molecule: H-HGEGTFSSELATILDALAARDFIAWLIATKITDKKKKKK-NH2 [Variant 10, NH2-HG^2E^3GT^5FSS^8EL^10A^11TILDA^16LAAR20DFIA^24WLIA^28TKITDK^34K^35K^36K^37K^38K^39- NH2, reference compound]

EC50 Ratio to Teduglutide, CBA (GLP-2 receptor [3]): 3 fold | EC50 [nM], Cell Based Assay (CBA), cells overexpressing the GLP-2 receptor (GLP-2 receptor [3]): 17.2 nM
B1: GLP-2 Variant #7 (peptide)
peptide: H-HGEGSFSDE[Nle]NTILDYLAARDFINWLIQTKITD-OH
SMILES: CCCC[C@H](NC(=O)[C@H](CCC(=O)O)NC(=O)[C@H](CC(=O)O)NC(=O)[C@H](CO)NC(=O)[C@H](Cc1ccccc1)NC(=O)[C@H](CO)NC(=O)CNC(=O)[C@H](CCC(=O)O)NC(=O)CNC(=O)[C@@H](N)Cc1c[nH]cn1)C(=O)N[C@@H](CC(N)=O)C(=O)N[C@H](C(=O)N[C@H](C(=O)N[C@@H](CC(C)C)C(=O)N[C@@H](CC(=O)O)C(=O)N[C@@H](Cc1ccc(O)cc1)C(=O)N[C@@H](CC(C)C)C(=O)N[C@@H](C)C(=O)N[C@@H](C)C(=O)N[C@@H](CCCNC(=N)N)C(=O)N[C@@H](CC(=O)O)C(=O)N[C@@H](Cc1ccccc1)C(=O)N[C@H](C(=O)N[C@@H](CC(N)=O)C(=O)N[C@@H](Cc1c[nH]c2ccccc12)C(=O)N[C@@H](CC(C)C)C(=O)N[C@H](C(=O)N[C@@H](CCC(N)=O)C(=O)N[C@H](C(=O)N[C@@H](CCCCN)C(=O)N[C@H](C(=O)N[C@H](C(=O)N[C@@H](CC(=O)O)C(=O)O)[C@@H](C)O)[C@@H](C)CC)[C@@H](C)O)[C@@H](C)CC)[C@@H](C)CC)[C@@H](C)CC)[C@@H](C)O

EC50 Ratio to Teduglutide, CBA (GLP-2 receptor [3]): 3.8 fold | EC50 [nM], Cell Based Assay (CBA), cells overexpressing the GLP-2 receptor (GLP-2 receptor [3]): 21.7 nM
B2: GLP-2 Variant #6 (peptide)
peptide: H-HGEGSFSDE[Nle]NTILDLLAARDFINWLIQTKITD-OH
SMILES: CCCC[C@H](NC(=O)[C@H](CCC(=O)O)NC(=O)[C@H](CC(=O)O)NC(=O)[C@H](CO)NC(=O)[C@H](Cc1ccccc1)NC(=O)[C@H](CO)NC(=O)CNC(=O)[C@H](CCC(=O)O)NC(=O)CNC(=O)[C@@H](N)Cc1c[nH]cn1)C(=O)N[C@@H](CC(N)=O)C(=O)N[C@H](C(=O)N[C@H](C(=O)N[C@@H](CC(C)C)C(=O)N[C@@H](CC(=O)O)C(=O)N[C@@H](CC(C)C)C(=O)N[C@@H](CC(C)C)C(=O)N[C@@H](C)C(=O)N[C@@H](C)C(=O)N[C@@H](CCCNC(=N)N)C(=O)N[C@@H](CC(=O)O)C(=O)N[C@@H](Cc1ccccc1)C(=O)N[C@H](C(=O)N[C@@H](CC(N)=O)C(=O)N[C@@H](Cc1c[nH]c2ccccc12)C(=O)N[C@@H](CC(C)C)C(=O)N[C@H](C(=O)N[C@@H](CCC(N)=O)C(=O)N[C@H](C(=O)N[C@@H](CCCCN)C(=O)N[C@H](C(=O)N[C@H](C(=O)N[C@@H](CC(=O)O)C(=O)O)[C@@H](C)O)[C@@H](C)CC)[C@@H](C)O)[C@@H](C)CC)[C@@H](C)CC)[C@@H](C)CC)[C@@H](C)O

EC50 Ratio to Teduglutide, CBA (GLP-2 receptor [3]): 6.4 fold | EC50 [nM], Cell Based Assay (CBA), cells overexpressing the GLP-2 receptor (GLP-2 receptor [3]): 36.1 nM
B3: GLP-2 Variant #2 (peptide)
peptide: H-HGEGSFSDE[Nle][dF]TILDNLAARDFINWLIQTKITD-NH2
SMILES: CCCC[C@H](NC(=O)[C@H](CCC(=O)O)NC(=O)[C@H](CC(=O)O)NC(=O)[C@H](CO)NC(=O)[C@H](Cc1ccccc1)NC(=O)[C@H](CO)NC(=O)CNC(=O)[C@H](CCC(=O)O)NC(=O)CNC(=O)[C@@H](N)Cc1c[nH]cn1)C(=O)N[C@H](Cc1ccccc1)C(=O)N[C@H](C(=O)N[C@H](C(=O)N[C@@H](CC(C)C)C(=O)N[C@@H](CC(=O)O)C(=O)N[C@@H](CC(N)=O)C(=O)N[C@@H](CC(C)C)C(=O)N[C@@H](C)C(=O)N[C@@H](C)C(=O)N[C@@H](CCCNC(=N)N)C(=O)N[C@@H](CC(=O)O)C(=O)N[C@@H](Cc1ccccc1)C(=O)N[C@H](C(=O)N[C@@H](CC(N)=O)C(=O)N[C@@H](Cc1c[nH]c2ccccc12)C(=O)N[C@@H](CC(C)C)C(=O)N[C@H](C(=O)N[C@@H](CCC(N)=O)C(=O)N[C@H](C(=O)N[C@@H](CCCCN)C(=O)N[C@H](C(=O)N[C@H](C(=O)N[C@@H](CC(=O)O)C(N)=O)[C@@H](C)O)[C@@H](C)CC)[C@@H](C)O)[C@@H](C)CC)[C@@H](C)CC)[C@@H](C)CC)[C@@H](C)O
